{"source": "patent US20260198495A1", "about": "“BINARY INSECTICIDE COMPOSITION AND USE THEREOF” (SHENYANG SINOCHEM AGROCHEMICALS R & D CO., LTD., priority 2022, published 2026)", "format_in_all_cases": "in vivo", "key": {"[1]": {"test_system": "adult Bemisia tabaci (Gennadius)", "assay": "whole plant or invertebrate", "conditions": "in Phaseolus vulgaris, 72 h", "procedure": "(§1) Preparation of the pesticide solution: according to different test requirements, the test samples were accurately weighed respectively with an electronic analytical balance. The technical pesticides were dissolved in acetone, and then diluted with 0.1% Tween 80 water into a series of pesticide solutions with a certain concentration gradient according to the experimental design dosage.\nIn addition, a blank control was set up. The number of dead and live insects was investigated 72 hours later."}, "[2]": {"test_system": "3rd-instar larvae of Spodoptera frugiperda", "assay": "Joint toxicity of I-72 + spinosad, corn leaf dipping, Example 10, Table 10", "conditions": "Spodoptera frugiperda, foliar, 72 h, A = compound I-72, B = spinosad, read-out: LC50", "description": "Test subject: 3rd-instar larvae of Spodoptera frugiperda, a sensitive strain reared indoors.\nExperimental method: the dipping method was adopted. The corn leaves cultivated in the greenhouse were taken, cut into leaf segments of 5 cm long, dipped in the prepared pesticide solution for 10 s, and then cut into small pieces of 1.5 cm×1.5 cm after natural air-drying in the shade. These pieces were placed in a 24-well culture plate, and the standard test insects were introduced, with 48 insects for each treatment. The treated test insects were placed in an observation room under certain conditions. The reaction of the test insects was regularly observed, and the number of dead and live insects was investigated 72 h later.\nThe test conditions, the preparation of the pesticide solution and the evaluation method were the same as those in Example 1."}, "[3]": {"test_system": "2nd-instar larvae of Spodoptera exigua Hübner", "assay": "whole plant or invertebrate", "conditions": "Spodoptera exigua, foliar; A = compound I-72, B = tetrachlorantraniliprole; cabbage leaf dipping; 72 hours; read-out: LC50", "procedure": "Test target: 2nd-instar larvae of Spodoptera exigua Hübner.\nas §1\n(§2) Experimental method: first, cabbage leaves were selected and dipped in the prepared pesticide solution for 10 s in the order from low dosage to high dosage according to the experimental design. After natural air-drying in the shade, they were placed in a 9-cm-diameter Petri dish with filter paper, and uniform and healthy test insects were introduced, with 10 insects for each treatment and 3 replicates for each treatment. In addition, a blank control was set up.\n(§3) The treated test materials were placed in an observation room, and the temperature, humidity and illumination of the observation room could be adjusted as needed. The number of dead and live insects was investigated 72 hours later."}, "[4]": {"test_system": "Aphis gossypii Glover nymphs", "assay": "Joint toxicity of I-72 + nitenpyram, Example 67, Table 67", "conditions": "A = compound I-72, B = nitenpyram, cotton leaf spraying, 48 hours, read-out: LC50", "procedure": "(§4) Test target: Aphis gossypii Glover nymphs, a sensitive strain reared indoors.\nas §1\n(§5) Experimental method: first, cotton leaves with uniform and consistent Aphis gossypii were selected, with about 30-40 insects on each leaf. Then, they were evenly sprayed with the pesticide solution in the order from low dosage to high dosage according to the experimental design, with 1.5 mL for each leaf and 3 replicates for each treatment. In addition, a blank control was set up.\n(§6) The treated test materials were placed in an observation room, and the temperature, humidity and illumination of the observation room could be adjusted as needed. The number of dead and live insects was investigated 48 hours later. […] Then, the co-toxicity coefficient of each ratio was calculated using the Sun Y-P method to evaluate the mixing effect (the same as in Example 1)."}, "[5]": {"test_system": "2nd-instar larvae of Plutella xylostella", "assay": "whole plant or invertebrate", "conditions": "Plutella xylostella; single pesticide, 0.5 mg/L; 72 hours; read-out: Measured mortality rate", "procedure": "Test target: 2nd-instar larvae of Plutella xylostella.\nas §1\nas §2, with “control (CK)” for “control”\nas §3, with “alive” for “live”, “later, and the corrected mortality rate was calculated using the Abbott's formula.” for “later.”\nThe synergism of the mixture was evaluated by the Bliss method. According to the concept of independent joint action he proposed, Bliss believes that the theoretical mortality rate P when insecticides are used in combination can be calculated by the following formula: […]\nPm is the measured mortality rate (%) of the target when the first active ingredient is at a concentration of m; and Pn is the measured mortality rate (%) of the target when the second active ingredient is used at a concentration of n.\nIf the actual mortality rate of the target after the two active ingredients are mixed at a certain concentration is greater than theoretical mortality rate P, it is determined that the two active ingredients have a synergistic effect when used in combination at the set concentration, and otherwise, they have an antagonistic effect."}, "[6]": {"test_system": "Aphis gossypii Glover nymphs", "assay": "Joint toxicity of I-72 + flonicamid, Example 74, Table 74", "conditions": "Aphis gossypii; A = compound I-72, B = flonicamid; cotton leaf spraying; 48 hours; read-out: LC50", "procedure": "as §4, §1, §5, §6"}, "[7]": {"test_system": "2nd-instar larvae of Mythimna separata", "assay": "Joint toxicity of I-72 + beta-cyfluthrin, Example 41, Table 41", "conditions": "Mythimna separata, foliar; A = compound I-72, B = beta-cyfluthrin; corn leaf dipping; 72 hours; read-out: LC50", "procedure": "Test target: 2nd-instar larvae of Mythimna separata.\nas §1\nas §2, with “corn” for “cabbage”\nas §6, with “72” for “48”"}, "[8]": {"test_system": "Myzus persicae (Sulzer) nymphs", "assay": "whole plant or invertebrate", "conditions": "A = compound I-72, B = clothianidin, cabbage leaf spraying, 48 hours, read-out: LC50", "procedure": "Test target: Myzus persicae (Sulzer) nymphs, a sensitive strain reared indoors.\nas §1\nas §5, with “cabbage” for “cotton”, “Myzus persicae (Sulzer)” for “Aphis gossypii”, “mL of the solution” for “mL”\nThe treated test materials were placed in an observation room, and the temperature, humidity and illumination of the observation room could be adjusted as needed. The number of dead and live insects was investigated 48 hours later."}}}
{"smiles": "CN(C(=O)c1ccc2c(c1)OC(F)(F)O2)c1cccc(C(=O)Nc2c(Br)cc(C(F)(C(F)(F)F)C(F)(F)F)cc2OC(F)F)c1F", "note": "[Compound I-72]", "values": [{"measurement": "LC50", "setting": "[1]", "value": 2.91, "unit": "µg/mL"}, {"measurement": "LC50", "setting": "[2]", "value": 0.0777, "unit": "µg/mL"}, {"measurement": "LC50", "setting": "[3]", "value": 0.252, "unit": "µg/mL"}, {"measurement": "LC50", "setting": "[4]", "value": 3, "unit": "µg/mL"}, {"measurement": "mortality at 0.5 µg/mL", "setting": "[5]", "value": 80, "unit": "%"}, {"measurement": "LC50", "setting": "[6]", "value": 2.81, "unit": "µg/mL"}, {"measurement": "LC50", "setting": "[7]", "value": 0.029, "unit": "µg/mL"}, {"measurement": "LC50", "setting": "[8]", "value": 8.05, "unit": "µg/mL"}]}
